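Where inhibition never reached the appropriate level, the endpoint shown equals the highest concentration tested. Otherwise, values were interpolated linearly from a five-concentration, 48-hour dose response in 96-well plates. TGI: concentration producing complete growth inhibition.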
Assays:
Assay in all cases: inhibition of tumour cell growth, NCI panel, 48 h
UACC-62 melanoma = tested on: UACC-62 melanoma
KM12 colon = tested on: KM12 colon
A549 NSCLC = tested on: A549 NSCLC
UACC-257 melanoma = tested on: UACC-257 melanoma
CCRF-CEM leukemia = tested on: CCRF-CEM leukemia
HT29 colon = tested on: HT29 colon
MOLT-4 leukemia = tested on: MOLT-4 leukemia
HCT-15 colon = tested on: HCT-15 colon
HCC-2998 colon = tested on: HCC-2998 colon
SN12C renal = tested on: SN12C renal
SF-268 CNS = tested on: SF-268 CNS
KM20L2 colon = tested on: KM20L2 colon
SNB-78 CNS = tested on: SNB-78 CNS
K-562 leukemia = tested on: K-562 leukemia
NCI-H23 lung = tested on: NCI-H23 lung
HOP-18 NSCLC = tested on: HOP-18 NSCLC
IGROV1 ovarian = tested on: IGROV1 ovarian
XF 498 CNS = tested on: XF 498 CNS
LOX IMVI melanoma = tested on: LOX IMVI melanoma
HL-60(TB) leukemia = tested on: HL-60(TB) leukemia
SK-OV-3 ovarian = tested on: SK-OV-3 ovarian
TK-10 renal = tested on: TK-10 renal
SF-539 CNS = tested on: SF-539 CNS
UO-31 renal = tested on: UO-31 renal
COLO 205 colon = tested on: COLO 205 colon
NCI-H522 lung = tested on: NCI-H522 lung
A498 renal = tested on: A498 renal
RXF 393 renal = tested on: RXF 393 renal
DMS 273 small cell lung = tested on: DMS 273 small cell lung
SW-620 colon = tested on: SW-620 colon
RPMI-8226 leukemia = tested on: RPMI-8226 leukemia
SK-MEL-5 melanoma = tested on: SK-MEL-5 melanoma
NCI-H460 lung = tested on: NCI-H460 lung
HOP-92 NSCLC = tested on: HOP-92 NSCLC
SNB-75 CNS = tested on: SNB-75 CNS
NCI-H226 lung = tested on: NCI-H226 lung
EKVX NSCLC = tested on: EKVX NSCLC
M19-MEL melanoma = tested on: M19-MEL melanoma
U251 CNS = tested on: U251 CNS
SK-MEL-28 melanoma = tested on: SK-MEL-28 melanoma
MALME-3M melanoma = tested on: MALME-3M melanoma
SNB-19 CNS = tested on: SNB-19 CNS
M14 melanoma = tested on: M14 melanoma
CAKI-1 renal = tested on: CAKI-1 renal
DMS 114 small cell lung = tested on: DMS 114 small cell lung
HCT-116 colon = tested on: HCT-116 colon
HOP-62 NSCLC = tested on: HOP-62 NSCLC
786-0 renal = tested on: 786-0 renal
ACHN renal = tested on: ACHN renal
OVCAR-5 ovarian = tested on: OVCAR-5 ovarian
SR leukemia = tested on: SR leukemia
SF-295 CNS = tested on: SF-295 CNS
OVCAR-4 ovarian = tested on: OVCAR-4 ovarian
LXFL 529 NSCLC = tested on: LXFL 529 NSCLC
OVCAR-3 ovarian = tested on: OVCAR-3 ovarian
SK-MEL-2 melanoma = tested on: SK-MEL-2 melanoma
OVCAR-8 ovarian = tested on: OVCAR-8 ovarian
DLD-1 colon = tested on: DLD-1 colon

With `COc1ccc(-c2c3ccccc3c(-c3ccc(OC)cc3)c3ccccc23)cc1` the TGI (UACC-62 melanoma) was > 100 µM, the TGI (KM12 colon) was > 100 µM and the TGI (A549 NSCLC) was > 100 µM. For the same compound, the TGI (UACC-257 melanoma) was > 100 µM, the TGI (CCRF-CEM leukemia) was > 100 µM and the TGI (HT29 colon) was > 100 µM. For the same compound, the TGI (MOLT-4 leukemia) was > 100 µM, the TGI (HCT-15 colon) was > 100 µM and the TGI (HCC-2998 colon) was > 100 µM. The TGI (SN12C renal) was > 100 µM, the TGI (SF-268 CNS) was > 100 µM and the TGI (KM20L2 colon) was > 100 µM. For the same compound, the TGI (SNB-78 CNS) was > 100 µM, the TGI (K-562 leukemia) was > 100 µM and the TGI (NCI-H23 lung) was > 100 µM. The TGI (HOP-18 NSCLC) was > 100 µM, the TGI (IGROV1 ovarian) was > 100 µM and the TGI (XF 498 CNS) was > 100 µM. For the same compound, the TGI (LOX IMVI melanoma) was > 100 µM, the TGI (HL-60(TB) leukemia) was > 100 µM and the TGI (SK-OV-3 ovarian) was > 100 µM. The TGI (TK-10 renal) was > 100 µM, the TGI (SF-539 CNS) was > 100 µM and the TGI (UO-31 renal) was > 100 µM. The TGI (COLO 205 colon) was > 100 µM, the TGI (NCI-H522 lung) was > 100 µM and the TGI (A498 renal) was > 100 µM. For the same compound, the TGI (RXF 393 renal) was > 100 µM, the TGI (DMS 273 small cell lung) was > 100 µM and the TGI (SW-620 colon) was > 100 µM. The TGI (RPMI-8226 leukemia) was > 100 µM, the TGI (SK-MEL-5 melanoma) was > 100 µM and the TGI (NCI-H460 lung) was > 100 µM. For the same compound, the TGI (HOP-92 NSCLC) was > 100 µM, the TGI (SNB-75 CNS) was 95.7 µM and the TGI (NCI-H226 lung) was > 100 µM. For the same compound, the TGI (EKVX NSCLC) was > 100 µM, the TGI (M19-MEL melanoma) was > 100 µM and the TGI (U251 CNS) was > 100 µM. For the same compound, the TGI (SK-MEL-28 melanoma) was > 100 µM, the TGI (MALME-3M melanoma) was > 100 µM and the TGI (SNB-19 CNS) was > 100 µM. The TGI (M14 melanoma) was > 100 µM, the TGI (CAKI-1 renal) was > 100 µM and the TGI (DMS 114 small cell lung) was > 100 µM. For the same compound, the TGI (HCT-116 colon) was > 100 µM, the TGI (HOP-62 NSCLC) was > 100 µM and the TGI (786-0 renal) was > 100 µM. The TGI (ACHN renal) was > 100 µM, the TGI (OVCAR-5 ovarian) was > 100 µM and the TGI (SR leukemia) was > 100 µM. For the same compound, the TGI (SF-295 CNS) was > 100 µM, the TGI (OVCAR-4 ovarian) was > 100 µM and the TGI (LXFL 529 NSCLC) was > 100 µM. The TGI (OVCAR-3 ovarian) was > 100 µM, the TGI (SK-MEL-2 melanoma) was > 100 µM and the TGI (OVCAR-8 ovarian) was > 100 µM. For the same compound, the TGI (DLD-1 colon) was > 100 µM.
